# Earlier results in patent US12220388B2, “Uses of curcuminoid compositions” (Givaudan France Naturals SAS, priority 2018, dated 2025).
# System: Caco-2 cells
smiles,measurement,setting,value
COc1cc(/C=C/C(=O)CC(=O)/C=C/c2ccc(O)c(OC)c2)ccc1O [curcumin],predicted absorption in humans,from correlation of Caco-2 Papp with human absorption in vivo,0-20%
same,Papp (apparent permeability coefficient),in vitro human intestinal cells model,1 nm/s
